≈ marks a conversion by molar mass, not a printed value.
How the values were obtained:
[1] = system: Mycobacterium tuberculosis; assay: Antimycobacterial activity against Mycobacterium tuberculosis H37Rv assessed as reduction in bacterial growth incubated for 7 days by resazurin dye based assay; assay type: functional; conditions: 168 h, time 7 day
[2] = system: Mycobacterium tuberculosis; assay: Antimycobacterial activity against Mycobacterium tuberculosis; assay type: functional, organism-based

NC[C@H]1OB(O)c2c(OCCO)ccc(Cl)c21 [GANFEBOROLE]
MIC [1]: 0.08 µM (≈ 0.0206 µg/mL) | IC50 [2]: 200 nM

From ChEMBL document CHEMBL6078693, “Move over COVID, Tuberculosis Is Once again the Leading Cause of Death from a Single Infectious Disease” (J Med Chem, 2024)
